{
  "source": "patent US20090208979A1",
  "about": "“Method for identifying antipsychotic drug candidates” (priority 2008, published 2009)",
  "key": {"[1]": {"test_system": "PKCβ mRNA"}, "[2]": {"test_system": "PKC"}, "[3]": {"test_system": "PKCγ mRNA"}, "[4]": {"test_system": "GAD67", "type": "cell-based, rat", "conditions": "whole cell lysates, vs control"}, "[5]": {"test_system": "PKCβ2", "conditions": "rat, in vivo, ip"}, "[6]": {"test_system": "PKCβ2", "type": "cell-based, rat"}, "[7]": {"test_system": "PKC", "remark": "listed apart in the source"}, "[8]": {"test_system": "ERK2", "conditions": "whole cell lysates, normalized to total ERK2, vs control; for reduction of ERK2 phosphorylation: acute treatment, 15 minutes; for increase of ERK2 phosphorylation: chronic treatment, 7 days"}, "[9]": {"test_system": "negative symptoms of schizophrenia", "conditions": "add-on to antipsychotic treatment; clinical studies; cited from earlier work"}, "[10]": {"test_system": "PKCβ2", "type": "in vivo, rat", "conditions": "rats, chronic 14 days IP; frontal cortex; vs control"}, "[11]": {"conditions": "rats; haloperidol 1 mg/kg and fluvoxamine 10 mg/kg IP; cited from earlier work"}, "[12]": {"test_system": "GAD67 mRNA", "type": "in vivo, rat", "conditions": "rats, 14 days daily IP (haloperidol 1 mg/kg, fluvoxamine 10 mg/kg, clozapine 10 mg/kg); frontal cortex; vs control"}, "[13]": {"conditions": "chronic treatment, 7 days, whole cell lysates, vs control"}, "[14]": {"conditions": "rats, 14 days daily IP (haloperidol 1 mg/kg, fluvoxamine 10 mg/kg, clozapine 10 mg/kg), frontal cortex, vs control"}, "[15]": {"conditions": "rats, chronic 14 days IP, frontal cortex, vs control"}},
  "note": "Where two headings read alike, the source gives them in different places.",
  "data": [
    {"smiles": "COCCCC/C(=N\\OCCN)c1ccc(C(F)(F)F)cc1", "note": "[fluvoxamine]", "values": [
      {"measurement": "PKCβ mRNA level", "setting": "[1]; rat, in vivo", "value": "increased significantly"},
      {"measurement": "increase of PKC phosphorylation level", "setting": "[2]", "value": 156, "unit": "%"},
      {"measurement": "PKCγ mRNA level", "setting": "[3]; rat, in vivo", "value": "increased significantly"},
      {"measurement": "decrease of GAD67 protein level", "setting": "[4]; chronic treatment, 7 days", "value": 60, "unit": "%"},
      {"measurement": "PKCβ2 level, cytosolic compartment", "setting": "[5]", "value": "reduced level"},
      {"measurement": "increase of PKCβ2 protein level", "setting": "[6]", "value": "did not affect"},
      {"measurement": "increase of PKC phosphorylation in the membranal fraction", "setting": "[7]; rat, in vivo, ip", "value": 50, "unit": "%"},
      {"measurement": "increase of PKC phosphorylation in whole lysate", "setting": "[7]; rat, in vivo, ip", "value": 40, "unit": "%"}
    ]},
    {"smiles": "CN1CCN(C2=Nc3cc(Cl)ccc3Nc3ccccc32)CC1", "note": "[clozapine]", "values": [
      {"measurement": "decrease of GAD67 protein level", "setting": "[4]; acute treatment, 15 minutes", "value": 25, "unit": "%"},
      {"measurement": "decrease of GAD67 protein level", "setting": "[4]; chronic treatment, 7 days", "value": 73, "unit": "%"},
      {"measurement": "reduction of ERK2 phosphorylation", "setting": "[8]", "value": 67, "unit": "%"},
      {"measurement": "increase of ERK2 phosphorylation", "setting": "[8]", "value": 87, "unit": "%"},
      {"measurement": "decrease of PKCβ2 protein level", "setting": "[6]; acute treatment, 15 minutes, whole cell lysates, vs control", "value": 31, "unit": "%"},
      {"measurement": "decrease of PKCβ2 protein level", "setting": "[6]; [13]", "value": 60, "unit": "%"}
    ]},
    {"smiles": "CNCCCC12CCC(c3ccccc31)c1ccccc12", "note": "[maprotiline]", "values": [
      {"measurement": "effect on negative symptoms of schizophrenia", "setting": "[9]", "value": "did not improve negative symptoms"}
    ]},
    {"smiles": "O=C(CCCN1CCC(O)(c2ccc(Cl)cc2)CC1)c1ccc(F)cc1", "note": "[haloperidol]", "values": [
      {"measurement": "PKCβ mRNA level", "setting": "[1]; [14]", "value": "significantly increased"},
      {"measurement": "increase of PKC phosphorylation level", "setting": "[2]; 15 minutes treatment (FIG. 11A), whole cell lysates, normalized to β-actin, vs control", "value": 134, "unit": "%"},
      {"measurement": "PKCγ mRNA level", "setting": "[3]; [14]", "value": "significantly increased"},
      {"measurement": "decrease of GAD67 protein level", "setting": "[4]; acute treatment, 15 minutes", "value": "did not affect"},
      {"measurement": "decrease of GAD67 protein level", "setting": "[4]; chronic treatment, 7 days", "value": "did not affect"},
      {"measurement": "reduction of ERK2 phosphorylation", "setting": "[8]", "value": "did not alter"},
      {"measurement": "increase of ERK2 phosphorylation", "setting": "[8]", "value": "did not alter"},
      {"measurement": "PKCβ2 protein level, whole tissue lysate", "setting": "[10]", "value": "significantly increased"},
      {"measurement": "increase of PKCβ2 protein level", "setting": "[6]; [13]", "value": 106, "unit": "%"},
      {"measurement": "brain and serum concentrations when coadministered compared with given individually", "setting": "[11]", "value": "not significantly changed"},
      {"measurement": "GAD67 mRNA level", "setting": "[12]", "value": "significantly increased"},
      {"measurement": "increase of PKC phosphorylation in the membranal fraction", "setting": "[7]; [15]", "value": 45, "unit": "%"},
      {"measurement": "increase of PKC phosphorylation in whole lysate", "setting": "[7]; [15]", "value": 38, "unit": "%"}
    ]}
  ]
}
